Assays:
[1] = test system: adult hippocampal progenitor cells; test: CyQUANT cell proliferation assay (DNA content); type: cell-based, rat; conditions: for cells in a well at the end of the experiment: around 6 x 10^3 cells seeded, control well without FGF around 1.5 x 10^5
Experimental: Proliferation assay. Hippocampal progenitor cells were seeded at 0.2 x 10^4 cells/cm^2 on 24-well plates in culture medium containing human FGF-2 (20ng/ml) and left to grow for 48 h. After a further 48 h of growth without FGF-2, cells were incubated with porcine GIP at different concentrations (Sigma), FGF-2 alone or a combination of both GIP (1 nM) and FGF-2 for 48 h. Cell proliferation assay was performed using the CyQUANT Cell Proliferation Kit (Molecular Probes, Eugene, OR) and a GENios microplate reader (TECAN Austria GmbH, Grödig, Austria) according to the instructions of the manufacturer.

[2] = test system: adult hippocampal progenitor cells; test: methyl-[3H]-thymidine incorporation assay; type: cell-based, rat; conditions: 24 h, n = 12
Experimental: Thymidin-assay. Hippocampal progenitor cells were seeded at 0.5 x 10^4 cells/cm^2 on 48-well plates in culture medium and left to grow for 48 h. The cells were then labeled with methyl-[^3H]-thymidine and incubated with GIP (1 nM) or FGF-2 (20ng/ml) for 24 h. Cells were lysed in 0.4 M NaOH, transferred to scint vials, mixed with 0.4 M HCl and assayed for DNA synthesis by scintillation spectrometry. The mean for each experiment was calculated from four different culture wells and each experiment was performed 12 times.

[3] = test system: adult hippocampal progenitor cells; test: Apop-Tag staining for apoptotic or dead cells; type: cell-based, rat; conditions: control 3.31 + 0.67%
Experimental: Apop-Tag. Hippocampal progenitor cells were seeded at 1 x 10^4 cells/cm^2 on glass coverslips and treated the same way as for the proliferation assay and incubated with GIP (1 nM) or FGF-2 (20 ng/ml). Cells were fixed and stained for apoptosis according to the Apop Tag kit user manual (Apop Tag S160 direct, Intergene Company, Purchase, NY, USA). A negative control without TdT-enzyme was included and positive controls with addition of H2O2 (100 µM and 1 mM) and DNase I (1 µg/ml) was included. In the last washing step the cells were incubated with the nuclear dye bisBenzimide (Hoechst 33258, Sigma) for 30 min. Apoptotic or dead cells were identified by green fluorescence in the nuclei and Hoechst nuclear dye was used to discriminate total number of cells. Three coverslips per experiment was stained from four different experiments. Positive cells was quantified by scoring the immunoreactivity of 1000–3000 cells systematically observed in 6 nonoverlapping fields in each coverslip.

[4] = test system: adult hippocampal progenitor cells; test: LDH release from dying cells; type: cell-based, rat; conditions: GIP 1 nM or FGF-2 20 ng/ml
Experimental: LDH-activity. Release of lactate dehydrogenase (LDH) from dying cells was measured using a routine photometric method (Dept. of Clinical Chemistry, Sahlgrenska University Hospital, Sweden). Cell culture medium was collected from culture wells seeded for the Apop Tag staining (see above). . The mean for each experiment was calculated from three different culture wells and each experiment was performed 4 times. The coefficient of variation for the assay was 1.7 % and the assay standard curve was linear for enzyme activities between 0.1–20 µkat/ dm^3.

[5] = test system: hippocampal progenitor cells in adult rat DG; test: Intracerebroventricular GIP infusion, BrdU-positive cell count in granule cell layer of dentate gyrus; type: in vivo; conditions: adult male SD rats, i.c.v. 1.92 nmol/day for 5 days
Experimental: Intracerebroventricular GIP infusion. Adult male SD rats (260-280 g; B&K Universal, Sweden) were intubated and ventilated with isoflurane in an O2/N2O mix (30:70). An infusion cannula connected to an osmotic pump (Alzet brain infusion kit II and Alzet 2001 osmotic pump, Alza Scientific Products, Palo Alto, CA) was placed in the 3rd cerebral ventricle (0.3 mm posterior from Bregma along the midline, 5 mm below skull surface). Each rat was infused (1 µl/hr) for 5 days with either GIP (1.92 nmol/day; n = 5) or vehicle (0.1 M PBS; n = 6) and sacrificed the last day. All animals received a single daily intraperitoneal injection of Bromodeoxyuridine (BrdU; 50 mg/kg of body weight; Boehringer Mannheim; Scandinavia AB, Bromma, Sweden).
Immunohistochemistry and cellcounting. Brains were sectioned and stained for BrdU using a primary mouse BrdU antibody (1:400, Boeringer Mannheim) and biotinylated horse anti-mouse IgG (1:125) secondary antibodies (Vector Laboratories, Burlingame, CA) as previously described^11. For each animal, the total number of BrdU-positive cells in the granule cell layer, including the subgranular layer, and their corresponding sample volume were determined in 12 immunoperoxidase-stained, 40-µm-thick coronal sections taken 240 µm apart. […] Results are expressed as BrdU-positive cells per sample volume.
Statistics. […] All values are expressed as the means ± SEM.

[6] = Effect on weight gain after intraventricular infusion in the brain; type: in vivo, rat; conditions: male Sprague-Dawley rats, 1.92 nmol/day intraventricularly, 5 days
Experimental: Rats (male Sprague-Dawley) were given either GIP (6 rats, 1.92 nmol/day) or phosphate buffered saline (PBS) as control-solution (7 rats), intraventricularly in the brain by osmotic mini-pumps. The rats were given substance during five days, and then sacrificed.
The weight of each rat was recorded and the total weight gain during the five days calculated.

| Substance | proliferative effect ([1]; GIP 0.1 pM, 48 h) | proliferative effect compared with FGF-2 ([1]; GIP 1 nM vs FGF-2 20 ng/ml) | increase in cell proliferation relative to control ([1]; GIP 1 nM, 48 h, n = 8) [%] | rate of cell proliferation, dose-dependent ([1]; GIP doses from 1 pM to 0.1 µM, 48 h) | cells in a well at the end of the experiment [1] | increase in thymidin incorporation compared to control ([2]; GIP 1 nM) [%] | cell death compared with control ([3]; GIP 1 nM) | extracellular level of released LDH compared with controls [4] | number of BrdU+ cells in the granule cell layer ([5]; n = 5, PBS 14986 ± 1831) [cells/mm^3] | increase in BrdU-positive cells versus PBS-treated animals ([5]; p < 0.05) [%] | weight gain as % of the weight gain seen in the PBS treated rats [6] [%] | total weight gain during the five days ([6]; PBS 28.5g) [g] | increase in cell proliferation relative to control ([1]; FGF-2 20 ng/ml alone, 48 h, n = 4) [%] | increase in thymidin incorporation compared to control ([2]; FGF-2 20 ng/ml) [%] | cell death ([3]; FGF-2 20 ng/ml) |
| --- | --- | --- | --- | --- | --- | --- | --- | --- | --- | --- | --- | --- | --- | --- | --- |
| GIP: 42 amino acid gastric inhibitory polypeptide; porcine GIP (Sigma) used in the cell assays (YAEGTFISDYSIAMDKIRQQDFVNWLLAQKGKKSDWKHNITQ; Gastric inhibitory polypeptide synthetic; UniProt P01281 1-42, looked up) | absent | slightly more than half | 74.5 ± 14.4 | significant increases | ~2.5 x 10^5 cells | 32.4 ± 3.3 | not statistically different | no statistical difference | 27969 ± 5795 | 86 | 63 | 17.9 | – | – | – |
| FGF-2: human fibroblast growth factor-2, a well-documented proliferative agent of these cells [reference compound] | – | – | – | – | ~3 x 10^5 cells | – | – | no statistical difference | – | – | – | – | 112.3 ± 20 | 60.1 ± 7.1 | 0.96 + 0.21% |

From patent US20060084597A2, “USE OF COMPOUNDS HAVING GIP ACTIVITY FOR THE TREATMENT OF DISORDERS ASSOCIATED WITH ABNORMAL LOSS OF CELLS AND/OR FOR THE TREATMENT OF OBESITY” (Eisai Co., Ltd., priority 2002, published 2006)
